Test results reported in the supplement of paper PMC10307832.

Columns and labels:
Assay in all cases: relative viability (nuclei count vs DMSO), 5 days (fraction); higher = more cells survive
[1] = compound: CC(=O)c1c(C)c2cnc(Nc3ccc(N4CCNCC4)cn3)nc2n(C2CCCC2)c1=O [Palbociclib] + CCNC(=O)c1noc(-c2cc(C(C)C)c(O)cc2O)c1-c1ccc(CN2CCOCC2)cc1 [Luminespib] (partner 0.01 µM)
Procedure, shortened: (§1)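 Nuclei were stained with Hoechst during a one-step fixation (final 0.05% Triton X-100, 1% formaldehyde, 1 ug/ml Hoechst) carried out 5 days after dosing, then counted on 4× images. The cells, lung cancer lines in 1536-well plates, had been dosed by pin tool the day after seeding with one drug alone or a fixed anchor-drug dose plus five library-drug doses (not always all listed) in √10 steps. Relative viability is the nuclei count in treated wells divided by that in vehicle wells, and each value is the median of duplicate plates.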

[2] = compound: CC(=O)c1c(C)c2cnc(Nc3ccc(N4CCNCC4)cn3)nc2n(C2CCCC2)c1=O [Palbociclib] + COc1cccc2cc(-c3nc([C@H]4CC[C@H](C(=O)O)CC4)n4ncnc(N)c34)[nH]c12 [OSI-027] (partner 0.5 µM)
Procedure, shortened: as §1

[3] = compound: CC(=O)c1c(C)c2cnc(Nc3ccc(N4CCNCC4)cn3)nc2n(C2CCCC2)c1=O [Palbociclib] + CS(=O)(=O)CCNCc1ccc(-c2ccc3ncnc(Nc4ccc(OCc5cccc(F)c5)c(Cl)c4)c3c2)o1 [Lapatinib] (partner 2 µM)
Procedure, shortened: as §1

[4] = compound: CC(=O)c1c(C)c2cnc(Nc3ccc(N4CCNCC4)cn3)nc2n(C2CCCC2)c1=O [Palbociclib] + Nc1ncn([C@H]2C[C@H](O)[C@@H](CO)O2)c(=O)n1 [Decitabine] (partner 2 µM)
Procedure, shortened: as §1

Cell Line | relative viability ([1]; first compound 0.01 µM) | relative viability ([1]; first compound 0.03162 µM) | relative viability ([1]; first compound 0.1 µM) | relative viability ([1]; first compound 0.3162 µM) | relative viability ([1]; first compound 1 µM) | relative viability ([2]; first compound 0.01 µM) | relative viability ([2]; first compound 0.03162 µM) | relative viability ([2]; first compound 0.1 µM) | relative viability ([2]; first compound 0.3162 µM) | relative viability ([2]; first compound 1 µM) | relative viability ([3]; first compound 0.01 µM) | relative viability ([3]; first compound 0.03162 µM) | relative viability ([3]; first compound 0.1 µM) | relative viability ([3]; first compound 0.3162 µM) | relative viability ([3]; first compound 1 µM) | relative viability ([4]; first compound 0.01 µM) | relative viability ([4]; first compound 0.03162 µM) | relative viability ([4]; first compound 0.1 µM) | relative viability ([4]; first compound 0.3162 µM) | relative viability ([4]; first compound 1 µM)
NCI-H1944 | 0.683 | 0.742 | 0.626 | 0.666 | 0.516 | 0.461 | 0.336 | 0.335 | 0.325 | 0.213 | 0.798 | 0.487 | 0.772 | 0.758 | 0.402 | 0.45 | 0.426 | 0.447 | 0.438 | 0.431
COR-L 105 | 0.689 | 0.814 | 0.596 | 0.475 | 0.536 | 0.676 | 0.506 | 0.453 | 0.429 | 0.336 | 0.352 | 0.281 | 0.312 | 0.339 | 0.354 | 0.777 | 0.629 | 0.554 | 0.604 | 0.452
NCI-H1648 | – | – | – | – | – | 0.264 | – | 0.256 | 0.27 | 0.251 | – | – | – | – | – | 0.651 | 0.376 | 0.445 | 0.511 | 0.339
PC-14 | 0.141 | – | 0.151 | 0.127 | 0.176 | 0.964 | 0.515 | 0.572 | 0.603 | 0.362 | 0.348 | 0.343 | 0.257 | 0.202 | 0.195 | 0.329 | 0.217 | 0.224 | 0.27 | 0.205
NCI-H23 | 0.216 | 0.214 | 0.219 | 0.196 | 0.236 | 0.576 | – | 0.502 | 0.463 | 0.408 | 1 | – | 1.05 | 0.804 | 0.589 | 0.28 | 0.341 | 0.283 | 0.362 | 0.33
LOU-NH91 | 0.341 | 0.322 | 0.271 | 0.348 | 0.324 | 0.706 | 0.587 | 0.46 | 0.505 | 0.44 | 0.8 | 0.596 | 0.581 | 0.569 | 0.557 | 0.817 | 0.732 | 0.693 | 0.631 | 0.61
ChaGo-K-1 | 0.532 | 0.575 | 0.893 | 0.689 | 0.62 | 0.594 | 0.396 | 0.661 | 0.563 | 0.594 | – | – | – | – | – | 0.517 | – | 0.554 | 0.522 | 0.518
HCC-827 | 0.398 | 0.539 | 0.582 | 0.609 | 0.532 | 0.809 | 0.52 | 0.707 | 0.563 | 0.479 | 0.217 | 0.19 | 0.161 | 0.202 | 0.182 | 0.369 | 0.294 | 0.289 | 0.314 | 0.265
COR-L23 | 0.647 | 0.515 | 0.511 | 0.429 | 0.434 | 0.763 | 0.6 | 0.491 | 0.521 | 0.39 | 1.02 | 0.864 | 0.777 | 0.667 | 0.418 | 0.414 | 0.369 | 0.322 | 0.363 | 0.33
